In patent US8030547B2, “Gene coding for acetolactate synthase” (priority 2002, dated 2011):

Assays:
[1] = system: wild type (Kinmaze) rice culture cells; assay: Growth of rice culture cells (relative wet weight of callus) in the presence of herbicide, wild type; assay type: cell-based, Oryza sativa var. Kinmaze
Procedure: Approximately 1.5 g (wet weight) of the resistant mutant was transplanted into a 200 ml Erlenmeyer flask supplemented with 50 ml of a MS-2,4-D liquid medium and bispyribac-sodium at a certain concentration, followed by culturing at approximately 27° C. for a certain period. The wet weight of the callus was measured periodically. The relative amount of increase was determined based on the wet weight of the transplanted resistant mutant. In addition, the experiment was performed three times with different bispyribac-sodium concentrations, and the standard error was calculated. FIGS. 3 to 6 show the relation between changes in bispyribac-sodium concentration and the relative weight on day 8 or 12 in the resistant mutant. As a control, a similar experiment was conducted using the wild type (Kinmaze).
Also, in the case of using chlorsulfuron instead of bispyribac-sodium, the growth rates of the wild type and the resistant mutants were measured as described above. […] Further, FIGS. 9 to 12 show the relation between changes in chlorsulfuron concentration and relative weight on day 8 or 10 in the resistant mutants, that is, Rb line, Sr line, Ga line and Vg line.

[2] = molecular target: T1, GST fusion P171H mutant ALS protein (Oryza sativa subsp. japonica, UniProt Q6K2E8, P171H); assay: Herbicide sensitivity of ALS protein expressed in E. coli (crude enzyme solution), P171H; assay type: biochemical, rice (Oryza sativa var. Kinmaze); details: for RS ratio: P171H mutant vs wild type
T1 construct: an expression vector having the full-length wild type ALS cDNA incorporated into the Eco RI site of pGEX-2T; made in house; host or cells: E. coli JM109, pGEX-2T(ALS P171H mutant); crude supernatant
T1 sequence (Q6K2E8 44-644 P171H): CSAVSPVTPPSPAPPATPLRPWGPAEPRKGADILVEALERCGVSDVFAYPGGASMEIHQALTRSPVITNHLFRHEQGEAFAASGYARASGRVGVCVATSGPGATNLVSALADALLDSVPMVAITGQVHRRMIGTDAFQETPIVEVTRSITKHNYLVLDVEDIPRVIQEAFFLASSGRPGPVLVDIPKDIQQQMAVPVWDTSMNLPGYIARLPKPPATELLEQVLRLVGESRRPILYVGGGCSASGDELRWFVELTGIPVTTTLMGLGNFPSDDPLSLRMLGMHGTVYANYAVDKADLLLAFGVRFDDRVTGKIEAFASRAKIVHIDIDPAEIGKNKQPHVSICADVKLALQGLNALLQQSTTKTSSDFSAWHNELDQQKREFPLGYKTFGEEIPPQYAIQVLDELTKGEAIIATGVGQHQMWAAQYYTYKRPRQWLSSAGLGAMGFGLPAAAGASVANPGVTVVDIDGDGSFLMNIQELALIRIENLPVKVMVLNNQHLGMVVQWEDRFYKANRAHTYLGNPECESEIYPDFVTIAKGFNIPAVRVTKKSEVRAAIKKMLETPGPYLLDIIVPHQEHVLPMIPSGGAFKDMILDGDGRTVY
Procedure: (§1) ALS activity resulting from the mutant ALS protein contained in the eluted fractions apportioned into each test tube for apportioning was measured as follows. A reaction solution to be used in a measurement reaction was prepared by mixing an eluted fraction to be measured with a solution comprising 20 mM sodium pyruvate, 0.5 mM TPP, 0.5 mM MgCl2, 10 μM FAD and 20 mM potassium phosphate buffer (pH 7.5). One ml of this reaction solution was used. After the eluted fraction to be measured was added, the measurement reaction was performed at 30° C. for 40 to 60 minutes. Then, the reaction was stopped by addition of 0.1 ml of 6N sulfuric acid (or 0.25 N sodium hydroxide).
(§2) After the reaction was stopped, the reaction solution was incubated at 60° C. for 10 minutes, thereby converting acetolactate contained in the reaction solution to acetoin.
(§3) Then, to quantify acetoin contained in the reaction solution, 1 ml of 0.5% (w/v) creatine and 1 ml of 5% (w/v) α-naphthol dissolved in 2.5 N sodium hydroxide was added to the reaction solution, followed by incubation at 37° C. for 10 minutes. Acetoin was then quantified by color comparison of the absorbance (at 525 nm) of the reaction solution, thereby evaluating ALS activity. In addition, since the reaction solution contained a small amount of sodium pyruvate, reaction time 0 was used as control.
(§4) E. coli transformed with pGEX-2T(ALS-wild) constructed in Example 3(5), E. coli transformed with pGEX-2T(ALS-W548L mutant) constructed in Example 5, E. coli transformed with pGEX-2T(ALS-S627I mutant) constructed in Example 5, E. coli transformed with pGEX-2T(ALS P171H mutant) constructed in Example 6, E. coli transformed with pGEX-2T(ALS R172S mutant) constructed in Example 6, E. coli transformed with pGEX-2T(ALS P171H, R172S mutant) constructed in Example 7, E. coli transformed with pGEX-2T(ALS-P171H, W548L mutant) constructed in Example 8, E. coli transformed with pGEX-2T(ALS-P171H, S627I mutant) constructed in Example 8, and E. coli transformed with pGEX-2T(ALS-P171H, W548L, S627I mutant) constructed in Example 9 were respectively shake-cultured (pre-culture) at 27° C. in 2 ml of LB liquid medium containing ampicillin. These types of E. coli were respectively cultured in 250 ml of LB liquid medium containing ampicillin using 1 ml of the pre-culture solution. After culturing overnight, 1 mM IPTG was added to the media, and then culturing was performed for a further 3 to 4 hours, so that the expression of GST fusion protein was induced. In addition, the cells were stored at −80° C. after washing.
(§5) Preparation and purification of ALS from E. coli were performed by the following method. First, the pellet of the transformant E. coli stored at −80° C. was suspended in ALS extraction buffer (potassium phosphate buffer (pH 7.5) containing 30% glycerol and 0.5 mM MgCl2). Specifically, 2.5 ml of the buffer was added to the pellet obtained from 50 ml of the culture solution. The suspension was subjected to ultrasonication (Heat Systems-Ultrasonics, Sonicator W-225R, micro chip, output control 8, interval of approximately 1 second, twice (40 seconds each)), and subjected to centrifugation at 15000×g, 4° C. for 20 minutes, thereby obtaining the supernatant as a crude enzyme solution.
(§6) Herbicide sensitivity of the wild type ALS protein and that of mutant ALS protein were examined using the 9 types of crude enzyme solutions obtained in Example 10. Herbicide sensitivity test was performed according to procedures almost the same as those in Example 2. However, in this example, reaction temperature was 37° C., reaction time was 30 minutes, and 10 mM valine was added to the reaction solution to inhibit ALS activity derived from E. coli. Further, three types of herbicides, bispyribac-sodium, pyrithiobac-sodium, and pyriminobac, were used as PC herbicides; chlorsulfuron was used as a sulfonylurea herbicide; and imazaquin was used as an imidazolinon herbicide. […]

[3] = molecular target: T2, GST fusion P171H/S627I mutant ALS protein (Oryza sativa subsp. japonica, UniProt Q6K2E8, P171H/S627I); assay: Herbicide sensitivity of ALS protein expressed in E. coli (crude enzyme solution), P171H/S627I; assay type: biochemical, rice (Oryza sativa var. Kinmaze); details: for RS ratio/ predicted RS ratio / Predicted RS ratio: P171H/S627I mutant; for RS ratio: P171H/S627I mutant vs wild type; for Predicted RS ratio: product of RS ratios of the 1-point mutants
T2 construct: made in house; host or cells: E. coli, pGEX-2T(ALS-P171H, S627I mutant); crude supernatant
T2 sequence (Q6K2E8 44-644 P171H/S627I): as the sequence (Q6K2E8 44-644 P171H) above, with S584I counted along it
Procedure: as §1, §2, §3, §4, §5, §6

[4] = group supplemented with 1 nM herbicide, day 8 (bispyribac-sodium) or day 9 (chlorsulfuron)

| SMILES | growth of the wild type (relative weight) [1, 4] | IC50 [2] | RS ratio [2] | IC50 [3] | RS ratio/ predicted RS ratio [3] | RS ratio [3] | Predicted RS ratio [3] | growth of the wild type (relative weight) ([1]; group supplemented with 10 nM or more, day 8) |
| --- | --- | --- | --- | --- | --- | --- | --- | --- |
| COc1nc(C)nc(NC(=O)NS(=O)(=O)c2ccccc2Cl)n1 [chlorsulfuron] | inhibited | 1.1 µM | 85 | 9.9 µM | 3.8 | 760 | 200 | – |
| COc1cc(OC)nc(Oc2cccc(Oc3nc(OC)cc(OC)n3)c2C(=O)O)n1 [bispyribac-sodium] | not inhibited | 0.055 µM | 8.7 | 23 µM | 10 | 3700 | 360 | inhibited |
| CC(C)C1(C)N=C(c2nc3ccccc3cc2C(=O)O)NC1=O (stereo not drawn) [imazaquin] | – | 3.4 µM | 1.5 | 71 µM | 3.2 | 32 | 10 | – |
